Measured values from PMC7112121 (Bioorganic Chemistry, 2019).
≈ marks a conversion by molar mass, not a printed value.

Assays:
Punto Toro virus = assay: Antiviral CPE reduction assay, Punto Toro virus in VERO cells; format: cell-based, Punta toro virus
Feline coronavirus = assay: microbe, parasite or virus in culture; settings: Alphacoronavirus 1, CRFK, read-out: Antiviral EC50 Feline coronavirus
VERO cells = settings: minimum cytotoxic concentration, microscopic inspection of cell morphology
HSV-2 = assay: Antiviral CPE reduction assay, HSV-2 in HEL cells; format: cell-based, Herpes simplex virus-2
ACV^r-HSV-1 = assay: Antiviral CPE reduction assay, ACVr-HSV-1 in HEL cells; format: cell-based
Sindbis virus = assay: Antiviral CPE reduction assay, Sindbis virus in VERO cells; format: cell-based
Vaccinia virus = assay: microbe, parasite or virus in culture; format: cell-based
Reovirus-1 = assay: Antiviral CPE reduction assay, Reovirus-1 in VERO cells; format: cell-based
in vitro [1] = settings: cat
HSV-1 = assay: Antiviral CPE reduction assay, HSV-1 in HEL cells; format: cell-based, Herpes simplex virus-1
Coxsackie B4 virus = assay: Antiviral CPE reduction assay, Coxsackie B4 virus in VERO cells; format: cell-based
[2] = test system: human embryonic lung (HEL) fibroblast cells; settings: minimum cytotoxic concentration, microscopic inspection of cell morphology
Parainfluenza-3 virus = assay: Antiviral CPE reduction assay, Parainfluenza-3 virus in VERO cells; format: cell-based
Feline herpesvirus = assay: Antiviral CPE reduction assay, Feline herpesvirus in CRFK cells; format: cell-based; settings: Felid alphaherpesvirus 1, CRFK, read-out: Antiviral EC50 Feline herpesvirus
[3] = test system: Mycobacterium tuberculosis H37Rv; settings: for H37Rv Finding Activity: M. tuberculosis H37Rv, MABA in BACTEC 12B medium
DNA virus = assay: Anti-DNA virus activity in HEL cells; format: cell-based
[4] = test system: Vesicular stomatitis virus; format: cell-based
CRFK feline kidney cells = settings: MTS cell viability assay
in vitro [5] = settings: African green monkey
[6] = test system: Mycobacterium tuberculosis H37Rv; assay: microbe, parasite or virus in culture; settings: read-out: H37Rv Finding MIC
[7] = VERO cells, CPE by microscopy, mean of two experiments
[8] = HEL cells, CPE by microscopy, mean of two experiments

Compound: O=C(Cc1csc2nc(-c3ccc(Br)cc3)cn12)NN1C(=O)CSC12CCC(c1ccc(O)cc1)CC2 (stereo not drawn) [Compound 5d, 2-[6-(4-Bromophenyl)imidazo[2,1-b]thiazole-3-yl]-N-(3-oxo-8-(4-hydroxyphenyl)-1-thia-4-azaspiro[4.5]dec-4-yl)acetamide]
- EC50 (Punto Toro virus; Punta Toro virus, Vero, read-out: Antiviral EC50 Punto Toro virus): > 100 µg/mL
- EC50 (Feline coronavirus): 4.8 µg/mL (≈ 8.03 µM)
- Cytotoxicity MCC (VERO cells): >100 µg/mL
- EC50 (HSV-2; Human alphaherpesvirus 2, HEL, read-out: Antiviral EC50 HSV-2): > 100 µg/mL
- EC50 (ACV^r-HSV-1; Human alphaherpesvirus 1, HEL, read-out: Antiviral EC50 ACV^r-HSV-1): > 100 µg/mL
- EC50 (Sindbis virus; Sindbis virus, Vero, read-out: Antiviral EC50 Sindbis virus): > 100 µg/mL
- EC50 (Vaccinia virus; Orthopoxvirus vaccinia, HEL, read-out: Antiviral EC50 Vaccinia virus): > 100 µg/mL
- EC50 (Reovirus-1; Vero, read-out: Antiviral EC50 Reovirus-1): > 100 µg/mL
- selectivity ratio (in vitro [1]): > 20
- EC50 (HSV-1; Human alphaherpesvirus 1, HEL, read-out: Antiviral EC50 HSV-1): > 100 µg/mL
- EC50 (Coxsackie B4 virus; Enterovirus B, B4, Vero, read-out: Antiviral EC50 Coxsackie B4 virus): > 100 µg/mL
- Cytotoxicity MCC [2]: 20 µg/mL
- EC50 (Parainfluenza-3 virus; Vero, read-out: Antiviral EC50 Parainfluenza-3 virus): > 100 µg/mL
- EC50 (Feline herpesvirus): 21 µg/mL (≈ 35.1 µM)

Compound: O=C(Cc1csc2nc(-c3ccc(Br)cc3)cn12)NN=C1CCC(c2ccccc2)CC1 (stereo not drawn) [Compound 4c, 6-(4-Bromophenyl)–N^2-(4-phenylcyclohexylidene)imidazo[2,1-b]thiazole-3-acetohydrazide]
- Antiviral EC50 Punto Toro virus (Punto Toro virus; [7]): >100 µg/mL
- H37Rv Finding MIC [3]: >100 µg/mL
- H37Rv Finding Activity [3]: Weak Active
- Cytotoxicity MCC (VERO cells): >100 µg/mL
- antiviral EC50 values, anti-DNA virus activity (DNA virus): about 45 µg/mL
- Antiviral EC50 HSV-2 (HSV-2; [8]): ≥45 µg/mL
- Antiviral EC50 ACV^r-HSV-1 (ACV^r-HSV-1; [8]): ≥45 µg/mL
- Antiviral EC50 Vesicular stomatitis virus [4]: >100 µg/mL
- Antiviral EC50 Sindbis virus (Sindbis virus; [7]): >100 µg/mL
- Antiviral EC50 Vaccinia virus (Vaccinia virus): 45 µg/mL
- Antiviral EC50 Reovirus-1 (Reovirus-1; [7]): >100 µg/mL
- Cytotoxicity CC50 (CRFK feline kidney cells): >100 µg/mL
- Antiviral EC50 HSV-1 (HSV-1; [8]): 45 µg/mL
- Antiviral EC50 Coxsackie B4 virus (Coxsackie B4 virus; [7]): >100 µg/mL
- Cytotoxicity MCC [2]: ≥100 µg/mL
- Antiviral EC50 Parainfluenza-3 virus (Parainfluenza-3 virus; [7]): >100 µg/mL

Compound: CO[C@H]1/C=C/O[C@@]2(C)Oc3c(C)c(O)c4c(O)c(c(/C=N/N5CCN(C)CC5)c(O)c4c3C2=O)NC(=O)/C(C)=C\C=C\[C@H](C)[C@H](O)[C@@H](C)[C@@H](O)[C@@H](C)[C@H](OC(C)=O)[C@@H]1C [Rifampin, reference compound]
- H37Rv Finding Activity [3]: Active
- CC50 (in vitro [5]): > 100 µg/mL
- MIC [6]: 0.125 µg/mL (≈ 0.152 µM)
